Results on ten compounds are retold here after PubChem BioAssay (NCI).

Usually GI50 stands for the concentration giving 50% growth inhibition. Usually TGI stands for the concentration giving total growth inhibition.

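Values below derive from 48-hour exposures of cells grown in 96-well plates, with endpoints linearly interpolated between the two concentrations bracketing the appropriate inhibition level. GI50 is the concentration that inhibits growth by half. The concentration for full growth arrest is given as TGI.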 Some results are limits rather than exact numbers.

Test systems include DU-145 prostate; UO-31 renal; EKVX NSCLC; SF-539 CNS; SW-620 colon; HOP-62 NSCLC; SK-MEL-5 melanoma; CCRF-CEM leukemia; MOLT-4 leukemia; A549 NSCLC.
Common to all, as to assay: DTP human tumour cell line panel, 48 h

On to `NCCOc1ccccc1/C=C1\c2ccccc2-c2ccc([N+](=O)[O-])cc21`, for which the GI50 in the assay with DU-145 prostate was 1.03 µM; with UO-31 renal, 1.3 µM; in the assay with EKVX NSCLC, 1.55 µM; in the assay with SF-539 CNS, 1.79 µM; with SW-620 colon, 1.09 µM; with HOP-62 NSCLC, 1.53 µM. Also, the figures for the GI50 in the assay on SK-MEL-5 melanoma and with CCRF-CEM leukemia were 1.8 µM and 1.08 µM, respectively. Also, the TGI with DU-145 prostate stood at 2.21 µM; with UO-31 renal, 2.61 µM; in the assay on EKVX NSCLC, 2.99 µM; with SF-539 CNS it was 3.18 µM; in the assay with SW-620 colon, 2.43 µM; in the assay on HOP-62 NSCLC, 3.18 µM. The values for the TGI in the assay on SK-MEL-5 melanoma and in the assay on CCRF-CEM leukemia were 3.22 µM and 2.54 µM, respectively.
Turning to `COc1ccc(/C=C2\CN(Cc3cn(CCNc4ccnc5cc(Cl)ccc45)nn3)C/C(=C\c3ccc(OC)c(OC)c3)C2=O)cc1OC`, the GI50 in the assay with DU-145 prostate is 3.48 µM; in the assay with MOLT-4 leukemia it was 3.5 µM; in the assay with UO-31 renal, 14.5 µM; with SF-539 CNS, 2.58 µM; with SW-620 colon, 2.32 µM; with A549 NSCLC, 4.73 µM. The GI50 in the assay with HOP-62 NSCLC is 3.9 µM; with SK-MEL-5 melanoma it was 1.72 µM; in the assay on CCRF-CEM leukemia, 2.54 µM. The TGI turned out to be 11 µM with DU-145 prostate; 40.2 µM in the assay with MOLT-4 leukemia; 31 µM in the assay with UO-31 renal; 8.14 µM in the assay on SF-539 CNS; 6.15 µM in the assay with SW-620 colon; 40.4 µM with A549 NSCLC. Besides, the TGI in the assay on HOP-62 NSCLC is 26.2 µM; with SK-MEL-5 melanoma, 3.75 µM; in the assay with CCRF-CEM leukemia, over 100 µM.
Turning to `OCCNCCCOc1ccc2ncnc(Nc3ccc(Oc4cccc(C(F)(F)F)c4)c(Cl)c3)c2c1`, the GI50 in the assay with DU-145 prostate is 1.33 µM; in the assay on UO-31 renal, 1.29 µM; with EKVX NSCLC, 1.24 µM; with SF-539 CNS, 1.64 µM; in the assay on SW-620 colon it was 1.76 µM; in the assay with CCRF-CEM leukemia, 1.66 µM. Besides, the TGI with DU-145 prostate came out at 2.66 µM; in the assay on UO-31 renal it was 2.57 µM; in the assay on EKVX NSCLC, 2.76 µM; in the assay on SF-539 CNS, 3.07 µM; with SW-620 colon, 3.38 µM; with CCRF-CEM leukemia it was 4.42 µM.
With `Cc1cc(N2CCCC2)nc(NCc2cc(Nc3ccnc4cc(Cl)ccc34)ccc2F)n1`, the GI50 was 1.3 µM in the assay with DU-145 prostate; 1.21 µM in the assay with UO-31 renal; 1.55 µM with SF-539 CNS; 1.71 µM with A549 NSCLC; 1.46 µM in the assay with HOP-62 NSCLC; 1.01 µM with SK-MEL-5 melanoma. In addition, the TGI with DU-145 prostate amounted to 2.69 µM; with UO-31 renal it was 2.66 µM; in the assay on SF-539 CNS it was 3.11 µM; in the assay on A549 NSCLC, 3.47 µM; with HOP-62 NSCLC it was 3.14 µM; in the assay with SK-MEL-5 melanoma, 2.2 µM.
Turning to `C[C@]1(Cn2ccnn2)C(C(=O)O)N2C(=O)CC2S1(=O)=O` (stereo partly specified), the GI50 in the assay with DU-145 prostate, in the assay with UO-31 renal, in the assay with SF-539 CNS, with SW-620 colon, in the assay with A549 NSCLC and with HOP-62 NSCLC was over 100 µM in each case. In addition, in the assay with SK-MEL-5 melanoma, the GI50 was over 100 µM. Further, the TGI in the assay with DU-145 prostate, in the assay with UO-31 renal, with SF-539 CNS, in the assay on SW-620 colon, in the assay on A549 NSCLC and with HOP-62 NSCLC was over 100 µM throughout. The same compound returned a TGI in the assay on SK-MEL-5 melanoma of over 100 µM.
On to `CCCCN(CCCC)CCC(O)c1cc2c(Cl)cc(Cl)cc2c2cc(C(F)(F)F)ccc12` (stereo unspecified), for which the TGI in the assay on DU-145 prostate was found to be 22 µM; in the assay with MOLT-4 leukemia, 29.3 µM; with UO-31 renal, 17.4 µM; in the assay with EKVX NSCLC it was 29.1 µM; with SF-539 CNS, 30.1 µM; in the assay on SW-620 colon, 25.7 µM. In addition, the TGI in the assay with HOP-62 NSCLC amounted to 21.9 µM; with CCRF-CEM leukemia, 29 µM.
For the compound `COC1C(OC(=O)/C=C/C=C/C=C/C=C\C(=O)O)CCC2(CO2)C1C1(C)OC1CC=C(C)C` (stereo unspecified), the GI50 in the assay on DU-145 prostate, with MOLT-4 leukemia, in the assay on UO-31 renal, in the assay with EKVX NSCLC, in the assay with SF-539 CNS and in the assay with SW-620 colon was over 200 µM in each case. Also, the GI50 in the assay with HOP-62 NSCLC, in the assay with SK-MEL-5 melanoma and in the assay with CCRF-CEM leukemia was over 200 µM in each case. For the same compound, the TGI in the assay on DU-145 prostate, with MOLT-4 leukemia, with UO-31 renal, in the assay on EKVX NSCLC, in the assay on SF-539 CNS and with SW-620 colon was over 200 µM throughout. For the same compound, the total growth inhibition concentration (TGI) in the assay with HOP-62 NSCLC, with SK-MEL-5 melanoma and in the assay with CCRF-CEM leukemia was over 200 µM each time.
As for `O=[n+]1c2ccccc2n([O-])c2cc(Cl)ccc21`, the GI50 in the assay on DU-145 prostate is 11.3 µM; in the assay with MOLT-4 leukemia it was 0.385 µM; in the assay with UO-31 renal it was 3.52 µM; in the assay with SF-539 CNS it was 3.5 µM; in the assay with SW-620 colon, 3.73 µM; in the assay on A549 NSCLC, 3.17 µM. The figures for the GI50 in the assay on HOP-62 NSCLC, in the assay on SK-MEL-5 melanoma and in the assay with CCRF-CEM leukemia were 3.15 µM, 9.11 µM and 0.533 µM, respectively. Also, the TGI was determined as 24.1 µM with DU-145 prostate; 2.03 µM with MOLT-4 leukemia; 15 µM in the assay with UO-31 renal; 11.2 µM with SF-539 CNS; 18.7 µM in the assay on SW-620 colon; 22.9 µM with A549 NSCLC. The TGI in the assay on HOP-62 NSCLC was 10.9 µM; in the assay on SK-MEL-5 melanoma, 21.6 µM; in the assay with CCRF-CEM leukemia it was 5 µM.
With `O=C(O)CCc1c2ccc(=O)c(O)c-2oc2c(O)c(O)ccc12`, the TGI was over 100 µM with DU-145 prostate; 65.7 µM with MOLT-4 leukemia; over 100 µM in the assay on UO-31 renal; over 100 µM with EKVX NSCLC; 59.9 µM in the assay on SW-620 colon; over 100 µM with A549 NSCLC. Moreover, the TGI in the assay with HOP-62 NSCLC is over 100 µM; in the assay on SK-MEL-5 melanoma, over 100 µM; in the assay with CCRF-CEM leukemia, 13.8 µM.
For the compound `O=C1Nc2ccccc2/C1=C\c1nc(C2CCN(S(=O)(=O)c3ccc(F)cc3)CC2)n2ccccc12`, the GI50 with DU-145 prostate is 4.35 µM; with MOLT-4 leukemia, over 100 µM; in the assay on EKVX NSCLC, 4.87 µM; with SF-539 CNS, 1.39 µM; in the assay on SW-620 colon, 85.7 µM; with A549 NSCLC it was over 100 µM. The GI50 in the assay on HOP-62 NSCLC is 2.06 µM; in the assay on CCRF-CEM leukemia, over 100 µM. For the same compound, the total growth inhibition concentration (TGI) with DU-145 prostate was over 100 µM; in the assay with MOLT-4 leukemia, over 100 µM; with EKVX NSCLC, over 100 µM; in the assay on SF-539 CNS it was 3.07 µM; in the assay with SW-620 colon, over 100 µM; in the assay with A549 NSCLC, over 100 µM. In addition, the TGI in the assay with HOP-62 NSCLC is 6.37 µM; in the assay with CCRF-CEM leukemia, over 100 µM.
